pIC50: −log10 of the molar value. Activity calls are given as the source filed them. The rule behind the calls is not given here.

In series [1] the target is Sphingosine 1-phosphate receptor 1 (Homo sapiens, UniProt P21453). The series is described as follows: Displacement of [33P]S1P from human S1P1 receptor expressed in CHO cells. In kind it is cell-based.
Series [2] deals with Sphingosine 1-phosphate receptor 2 (Homo sapiens, UniProt O95136). The series is described as follows: Displacement of [33P]S1P from human S1P2 receptor expressed in CHO cells. In kind it is cell-based.
Series [3] deals with Sphingosine 1-phosphate receptor 3 (Homo sapiens, UniProt Q99500). Briefly: Displacement of [33P]S1P from human S1P3 receptor expressed in CHO cells. In kind it is cell-based.
In series [4] the target is T1, Sphingosine 1-phosphate receptor 4 (Homo sapiens, UniProt O95977).
T1 sequence (O95977 whole entry): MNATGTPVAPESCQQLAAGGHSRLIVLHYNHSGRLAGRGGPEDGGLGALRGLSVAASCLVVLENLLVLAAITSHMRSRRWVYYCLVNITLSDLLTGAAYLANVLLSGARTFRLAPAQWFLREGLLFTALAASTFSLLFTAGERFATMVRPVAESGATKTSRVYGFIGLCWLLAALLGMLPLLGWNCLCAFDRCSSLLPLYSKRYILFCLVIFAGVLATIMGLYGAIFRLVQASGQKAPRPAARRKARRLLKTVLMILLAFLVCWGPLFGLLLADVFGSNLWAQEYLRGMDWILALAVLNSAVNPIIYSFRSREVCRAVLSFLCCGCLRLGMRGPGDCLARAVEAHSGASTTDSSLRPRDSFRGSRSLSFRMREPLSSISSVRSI
Briefly: Displacement of [33P]S1P from human S1P4 receptor expressed in CHO cells. In kind it is cell-based.

For series [5], the target named is Sphingosine 1-phosphate receptor 5 (Homo sapiens, UniProt Q9H228). The series is described as follows: Displacement of [33P]S1P from human S1P5 receptor expressed in CHO cells. In kind it is cell-based.
The nature of series [6]: Clearance in Sprague-Dawley rat at 1 mg/kg, iv and 2 mg/kg, po. It is filed as ADME, organism-based. The settings on record: in vivo.
The nature of series [7]: Volume of distribution in Sprague-Dawley rat at 1 mg/kg, iv and 2 mg/kg, po. In kind it is ADME, organism-based. The following applies: in vivo, read-out: Vss.
Series [8] in a line: Half life in Sprague-Dawley rat at 1 mg/kg, iv and 2 mg/kg, po. The following applies: in vivo. It is filed as ADME, organism-based.
The nature of series [9]: Oral bioavailability in Sprague-Dawley rat at 1 mg/kg, iv and 2 mg/kg, po. In kind it is ADME, organism-based. The following applies: in vivo.
Series [10] deals with PBL. Briefly: […] of peripheral blood lymphocyte in mouse at 1 mg/kg, po. Also noted: dose 1 mg/kg. It is filed as functional, organism-based.
The subject of series [11] is PBL. The series is described as follows: […] of peripheral blood lymphocyte in orally dosed mouse. In kind it is functional, organism-based.
Series [12] deals with PBL. Briefly: Reduction in peripheral blood lymphocyte count in mouse at 10 mg/kg, po relative to control. In kind it is functional. More on the design: scale not given: the % may be the effect or the level left.

Sphingosine 1-phosphate receptor 1, sequence (P21453 whole entry): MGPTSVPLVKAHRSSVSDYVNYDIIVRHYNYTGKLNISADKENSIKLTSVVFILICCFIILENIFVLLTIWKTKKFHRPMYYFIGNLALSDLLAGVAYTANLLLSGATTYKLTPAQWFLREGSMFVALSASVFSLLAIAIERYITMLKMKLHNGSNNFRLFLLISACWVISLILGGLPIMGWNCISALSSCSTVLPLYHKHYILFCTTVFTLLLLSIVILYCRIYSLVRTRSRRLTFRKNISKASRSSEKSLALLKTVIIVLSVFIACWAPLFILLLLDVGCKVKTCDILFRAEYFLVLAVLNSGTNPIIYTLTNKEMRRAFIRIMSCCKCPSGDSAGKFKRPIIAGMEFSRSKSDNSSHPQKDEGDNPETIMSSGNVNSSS
Sphingosine 1-phosphate receptor 2, sequence (O95136 whole entry): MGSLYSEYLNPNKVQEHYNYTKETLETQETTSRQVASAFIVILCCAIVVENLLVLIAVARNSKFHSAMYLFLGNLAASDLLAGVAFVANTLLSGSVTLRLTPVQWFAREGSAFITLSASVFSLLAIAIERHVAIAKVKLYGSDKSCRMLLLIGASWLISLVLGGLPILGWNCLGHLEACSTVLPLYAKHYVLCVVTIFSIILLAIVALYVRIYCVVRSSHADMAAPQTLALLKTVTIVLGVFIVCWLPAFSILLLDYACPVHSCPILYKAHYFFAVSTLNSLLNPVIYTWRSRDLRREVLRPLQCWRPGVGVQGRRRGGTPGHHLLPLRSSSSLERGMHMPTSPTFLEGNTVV
Sphingosine 1-phosphate receptor 3, sequence (Q99500 whole entry): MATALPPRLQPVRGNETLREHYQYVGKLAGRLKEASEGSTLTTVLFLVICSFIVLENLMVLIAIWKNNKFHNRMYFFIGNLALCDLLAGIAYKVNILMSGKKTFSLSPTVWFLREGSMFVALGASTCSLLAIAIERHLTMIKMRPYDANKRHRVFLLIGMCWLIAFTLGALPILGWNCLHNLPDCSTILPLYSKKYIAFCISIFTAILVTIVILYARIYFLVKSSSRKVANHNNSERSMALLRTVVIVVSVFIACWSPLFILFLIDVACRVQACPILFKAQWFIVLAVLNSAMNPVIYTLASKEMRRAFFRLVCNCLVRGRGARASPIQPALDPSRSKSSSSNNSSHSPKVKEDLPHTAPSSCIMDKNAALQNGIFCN
Sphingosine 1-phosphate receptor 5, sequence (Q9H228 whole entry): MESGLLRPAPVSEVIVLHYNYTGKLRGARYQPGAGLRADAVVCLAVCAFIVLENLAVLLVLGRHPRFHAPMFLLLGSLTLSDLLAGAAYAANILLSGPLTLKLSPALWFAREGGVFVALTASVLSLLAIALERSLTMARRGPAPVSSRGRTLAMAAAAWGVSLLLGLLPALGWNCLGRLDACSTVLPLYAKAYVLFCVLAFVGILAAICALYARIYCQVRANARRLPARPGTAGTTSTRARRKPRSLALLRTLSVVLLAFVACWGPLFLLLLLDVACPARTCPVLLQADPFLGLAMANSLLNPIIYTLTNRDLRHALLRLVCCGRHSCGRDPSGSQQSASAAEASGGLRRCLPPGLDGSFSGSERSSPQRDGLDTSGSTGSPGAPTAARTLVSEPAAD

Broadly, the pIC50 is the IC50 on a negative log10 scale, so that one unit is a factor of ten. Regarding `O=C(O)C1CNC(c2ccc(OCc3cc(-c4ccccc4)c(C(F)(F)F)s3)cc2)C1` (stereo not given), the pIC50 is 7.60 in series [1]; under 5.00 in series [2]; 5.32 in series [3]; 5.57 in [4]; 6.89 in series [5].
What is called half-life is the time in which the quantity being followed falls by half. One may read the bioavailability as dose-corrected exposure relative to a reference, in per cent. On to `O=C(O)C[C@@H]1CN[C@@H](c2ccc(-c3noc(-c4ccc([C@@H]5CCC(F)(F)C5)cc4)n3)cc2)C1` (stereo in doubt; 22g) [listing 1 of 2 here], for which the pIC50 in series [1] is 9.10; in [2], under 5.00; in series [3], 5.96; in series [4], 6.10; in [5], 7.96. Besides, the clearance in series [6] came out at 2.1 mL/min/kg. Further, the Vd in series [7] is 1.3 L/kg. The same compound gave a half-life in series [8] of 5.6 h. In addition, the bioavailability in [9] was 36%.
On to `O=C(O)C[C@@H]1CN[C@@H](c2ccc(-c3noc(-c4ccc([C@@H]5CCC(F)(F)C5)cc4)n3)cc2)C1` (stereo in doubt; 22f) [listing 1 of 2 here], for which, in the series on PBL [10], the result was Active.
In the case of `CC(C)Cc1ccc(-c2nc(-c3ccc([C@H]4C[C@@H](CC(=O)O)CN4)cc3)no2)cc1` (relative stereo), the pIC50 in [1] was 8.10; in [2], under 5.00; in series [3], 5.82; in [4] it was 6.80; in series [5], 6.85. For the same compound, the outcome in the series with PBL [11] was Active. The compound further gave a clearance in series [6] of 3.4 mL/min/kg. Moreover, in series [7], the Vd stood at 2.9 L/kg. In addition, the half-life in [8] was 10.9 h. Moreover, in [9], the bioavailability came out at 27%.
Turning to `CC(C)Cc1ccc(-c2nc(-c3ccc([C@H]4C[C@H](CC(=O)O)CN4)cc3)no2)cc1` (relative stereo), the pIC50 in series [1] is 8.24; in series [2], under 5.00; in [3] it was under 6.00; in [4], 6.82; in series [5], 6.52. In [6], this compound displayed a clearance of 7.4 mL/min/kg. For the same compound, the Vd in [7] was determined as 6.6 L/kg. Besides, the half-life in series [8] was 10.7 h. Further, in series [9], the bioavailability came out at 79%.
`O=C(O)CC1CNC(c2ccc(OCc3cc(-c4ccccc4)c(C(F)(F)F)s3)cc2)C1` (stereo not given): the negative logarithm of the IC50 (pIC50) in [1] was 8.66; in series [2], under 5.00; in series [3] it was 5.68; in series [4], 6.41; in [5], 6.41. The compound also returned an Activity in the series on PBL [12] of 39%.
The compound `CC(C)Cc1ccc(-c2nc(-c3ccc(CN4CC(C(=O)O)C4)cc3)no2)cc1` showed a bioavailability in series [9] of 67%.
In the case of `O=C(O)C[C@@H]1CN[C@@H](c2ccc(-c3noc(-c4ccc(C5CCCCC5)cc4)n3)cc2)C1` (relative stereo), the pIC50 in series [1] is 8.85; in [2], under 5.00; in series [3], 5.51; in [4], 6.96; in series [5] it was 7.24. For the same compound, in the series with PBL [11], the outcome was Active.
Consider `O=C(O)C[C@@H]1CN[C@@H](c2ccc(-c3noc(-c4ccc([C@@H]5CCC(F)(F)C5)cc4)n3)cc2)C1` (stereo in doubt; 22g) [listing 2 of 2 here], for which the outcome in the series with PBL [11] and with PBL [10] was Active.
With `O=C(O)C[C@@H]1CN[C@@H](c2ccc(-c3noc(-c4ccc(C5CCCC5)cc4)n3)cc2)C1` (relative stereo), the pIC50 is 9.00 in series [1]; under 5.00 in [2]; under 6.00 in series [3]; 6.92 in series [4]; 7.17 in series [5].
On to `O=C(O)C[C@@H]1CN[C@@H](c2ccc(-c3noc(-c4ccc([C@@H]5CCC(F)(F)C5)cc4)n3)cc2)C1` (stereo in doubt; 22f) [listing 2 of 2 here], for which the pIC50 is 8.92 in series [1]; under 5.00 in series [2] (cho); 6.16 in [3]; 7.49 in series [4]; 8.29 in series [5].
`O=C(O)C[C@@H]1CN[C@@H](c2ccc(-c3noc(-c4ccc(C5CCC(F)(F)CC5)cc4)n3)cc2)C1` (relative stereo): the pIC50 is 8.70 in series [1]; under 5.00 in [2]; 6.34 in [3]; 6.96 in [4]; 7.68 in series [5]. In addition, the outcome with PBL [11] and with PBL [10] was Active. Moreover, the clearance in [6] came to 3.5 mL/min/kg. Moreover, the Vd in series [7] came to 2.2 L/kg. Besides, the half-life in series [8] is 4.4 h. Besides, the bioavailability in series [9] turned out to be 23%.
As for `O=C(O)C[C@@H]1CN[C@@H](c2ccc(-c3noc(-c4ccc(CCC(F)(F)F)cc4)n3)cc2)C1` (relative stereo), the pIC50 was 8.26 in [1]; under 5.00 in series [2]; under 6.00 in [3]; 6.64 in series [4]; 7.30 in series [5].

Values taken from ChEMBL document CHEMBL1138904, “2-Aryl(pyrrolidin-4-yl)acetic acids are potent agonists of sphingosine-1-phosphate (S1P) receptors” (Bioorg Med Chem Lett, 2006).
